This passage reports MIC results from DBAASP.

≈ marks a conversion by molar mass, not a printed value. Where “and” joins values, the source holds several entries; their conditions need not be identical. Identical values can stand only once. Some results are limits rather than exact numbers.

Holding throughout (test): ≥ marks a high value that may be exact or a test limit, other limits are often not marked, values filed in µg/mL are converted to µM
Assay [1] deals with Staphylococcus aureus 725.
The test system of assay [2] is Staphylococcus aureus 936.
The test system of assay [3] is Staphylococcus aureus ATCC 25923.
Assay [4] deals with Staphylococcus aureus MR.
Assay [5] concerns Staphylococcus aureus 113.
Assay [6] concerns Staphylococcus aureus ATCC 33591.
The subject of assay [7] is Staphylococcus aureus 794.
Assay [8] deals with Klebsiella pneumoniae K6 ATCC 700603.
In assay [9] the test system is Escherichia coli BL21AI.
In assay [10] the test system is Escherichia coli 45849.
The subject of assay [11] is Salmonella enterica subsp. enterica serovar Typhimurium ATCC 700408.
Assay [12] deals with Escherichia coli D31.
In assay [13] the test system is Klebsiella pneumoniae 123132.
The test system of assay [14] is Salmonella enterica subsp. enterica serovar Typhi S5.
Assay [15] relates to Escherichia coli ATCC 25922.
For assay [16], the system named is Escherichia coli ESBL.
The subject of assay [17] is Escherichia coli ATCC 11775.
The subject of assay [18] is Pseudomonas aeruginosa ATCC 27853.
Assay [19] concerns Escherichia coli ATCC 35218.
For assay [20], the system named is Escherichia coli ESBL 4.
The subject of assay [21] is Escherichia coli ATCC 43827.
For assay [22], the system named is Escherichia coli ATCC 11229.
Assay [23] has as its system Klebsiella pneumoniae ATCC 13866.
Assay [24] concerns Salmonella enterica serovar Typhimurium.
Assay [25] has as its system Staphylococcus aureus ATCC 29213.
Assay [26] deals with Staphylococcus epidermidis ATCC 12228.
The test system of assay [27] is Escherichia coli NBRC 3972.
Assay [28] has as its system Pseudomonas putida NBRC 100650.
Assay [29] deals with Candida viswanathii NBRC 10321.
The subject of assay [30] is Micrococcus luteus NBRC 3333.
In assay [31] the test system is Staphylococcus epidermidis NBRC 12993.
Assay [32] deals with Aspergillus oryzae NBRC 100959.
Assay [33] relates to Escherichia coli UB1005.
The test system of assay [34] is Lacticaseibacillus rhamnosus 7469.
Assay [35] concerns Lacticaseibacillus rhamnosus 1.0925.
The test system of assay [36] is Staphylococcus aureus ATCC 43300.
For assay [37], the system named is Lacticaseibacillus rhamnosus 1.0911.
Assay [38] has as its system Lacticaseibacillus rhamnosus 1.0386.
The test system of assay [39] is Lactiplantibacillus plantarum 8014.
Assay [40] concerns Lacticaseibacillus rhamnosus 1.0385.
Assay [41] deals with Klebsiella pneumoniae.
The subject of assay [42] is Salmonella enterica subsp. enterica serovar Paratyphi A.
The subject of assay [43] is Citrobacter freundii.
The test system of assay [44] is Staphylococcus haemolyticus.

A word on the MIC: it is the least concentration at which growth counts as inhibited. In the case of `CC(C)C[C@H](NC(=O)[C@@H](NC(=O)[C@H](CCCCN)NC(=O)[C@H](CCCCN)NC(=O)[C@H](Cc1c[nH]c2ccccc12)NC(=O)[C@H](CC(C)C)NC(=O)[C@H](CCCN=C(N)N)NC(=O)[C@H](CC(C)C)NC(=O)[C@H](C)NC(=O)[C@H](CCCCN)NC(=O)CNC(=O)[C@H](CC(C)C)NC(=O)[C@H](CC(C)C)NC(=O)[C@H](CO)NC(=O)CNC(=O)[C@H](Cc1ccccc1)NC(=O)CN)C(C)C)C(N)=O` [GFGSLLGKALRLWKKVL], the minimum inhibitory concentration (MIC) in assay [1] is 4.24 µM (≈ 8 µg/mL); in assay [2], 4.24 µM (≈ 8 µg/mL); in [3], 2.12 µM and 4.24 µM; in [4] it was 4.24 µM (≈ 8 µg/mL); in assay [5], 4.24 µM (≈ 8 µg/mL); in assay [6] it was 4.24 µM (≈ 8 µg/mL). Moreover, the MIC in assay [7] is 4.24 µM (≈ 8 µg/mL).

With `CC[C@H](C)[C@H](NC(=O)[C@H](Cc1ccc(O)cc1)NC(=O)[C@@H](NC(=O)[C@@H]1CCCN1C(=O)[C@H](CCCN=C(N)N)NC(=O)[C@H](CC(N)=O)NC(=O)[C@H](CC(N)=O)NC(=O)CN)C(C)C)C(=O)N1CCC[C@H]1C(=O)N[C@@H](CCC(N)=O)C(=O)N1CCC[C@H]1C(=O)N[C@@H](CCCN=C(N)N)C(=O)N1CCC[C@H]1C(=O)N1CCC[C@H]1C(=O)N[C@@H](Cc1cnc[nH]1)C(=O)N1CCC[C@H]1C(=O)N[C@@H](CCCN=C(N)N)C(=O)N[C@@H](CC(C)C)C(N)=O` [GNNRPVYIPQPRPPHPRL], the minimal inhibitory concentration (MIC) in [8] is 7.59 µM (≈ 16 µg/mL); in assay [9] it was 0.237 µM (≈ 0.5 µg/mL); in assay [10], 0.237 µM (≈ 0.5 µg/mL); in [11], 0.0593 µM (≈ 0.125 µg/mL); in assay [12] it was 0.474 µM (≈ 1 µg/mL); in assay [13] it was 7.59 µM (≈ 16 µg/mL). The MIC in assay [14] was determined as 0.0593 µM (≈ 0.125 µg/mL).

Take `CC[C@H](C)[C@H](NC(=O)[C@H](Cc1ccc(O)cc1)NC(=O)[C@H](CCC(N)=O)NC(=O)[C@H](CC(C)C)NC(=O)[C@H](C)NC(=O)[C@H](CCCCN)NC(=O)[C@H](CCCCN)NC(=O)[C@H](CCSC)NC(=O)[C@H](CCCCN)NC(=O)[C@H](CCCCN)NC(=O)[C@@H](N)CCCCN)C(=O)N[C@@H](CCCCN)C(=O)N[C@@H](CC(C)C)C(=O)N[C@@H](CC(C)C)C(=O)N[C@@H](CCCCN)C(=O)N[C@@H](CCC(=O)O)C(N)=O` [KKKMKKALQYIKLLKE]: the MIC is 25 µM (≈ 49.7 µg/mL) in assay [15]; at least 50 µM in assay [16]; at least 100 µM in assay [17]; over 100 µM in assay [18]; 12.5 µM (≈ 24.9 µg/mL) in assay [19]; at least 100 µM in [20]. Moreover, in [21], the MIC is 6 µM (≈ 11.9 µg/mL).

Consider `CC[C@H](C)[C@H](NC(=O)[C@H](CCCN=C(N)N)NC(=O)[C@@H](N)CCSC)C(=O)NCC(=O)N[C@@H](CC(C)C)C(=O)N[C@@H](CCCN=C(N)N)C(=O)N[C@@H](Cc1ccccc1)C(=O)N[C@H](C(=O)N[C@@H](CC(C)C)C(=O)N[C@@H](CCSC)C(=O)O)C(C)C` [MRIGLRFVLM], for which the minimum inhibitory concentration (MIC) in [22] is 12.9 µM (≈ 16 µg/mL); in [23] it was 25.9 µM (≈ 32 µg/mL); in assay [24] it was at least 104 µM; in assay [25], 104 µM (≈ 128 µg/mL); in assay [26], 12.9 µM (≈ 16 µg/mL); in [18], 12.9 µM (≈ 16 µg/mL). In addition, the MIC in assay [19] and in [6] was at least 104 µM throughout.

On to `CC[C@H](C)[C@H](NC(=O)[C@H](CCCCN)NC(=O)[C@@H](N)CCCN=C(N)N)C(=O)N[C@@H](CCCCN)C(=O)N[C@@H](CCCN=C(N)N)C(=O)N[C@@H](Cc1ccc(O)cc1)C(=O)N[C@@H](CC(C)C)C(=O)N[C@@H](CCCN=C(N)N)C(=O)N[C@@H](CCCN=C(N)N)C(=O)N[C@@H](CCSC)C(=O)N[C@@H](CCCCN)C(=O)O` [RKIKRYLRRMK], for which the minimum inhibitory concentration (MIC) in assay [27] was at least 64.6 µM; in assay [28], at least 258 µM; in [29] it was at least 258 µM; in assay [30], at least 129 µM; in [31] it was at least 64.6 µM; in [32], at least 129 µM.

Consider `NC(=O)C[C@H](NC(=O)[C@H](Cc1c[nH]c2ccccc12)NC(=O)[C@H](Cc1c[nH]c2ccccc12)NC(=O)[C@H](Cc1c[nH]c2ccccc12)NC(=O)[C@H](CC(N)=O)NC(=O)[C@H](Cc1c[nH]c2ccccc12)NC(=O)[C@H](CCCN=C(N)N)NC(=O)[C@@H](N)CCCN=C(N)N)C(=O)N[C@@H](Cc1c[nH]c2ccccc12)C(=O)N[C@@H](CCCN=C(N)N)C(=O)N[C@@H](CCCN=C(N)N)C(N)=O` [RRWNWWWNWRR], for which the minimal inhibitory concentration (MIC) in assay [15] is over 64 µM; in [33], at least 64 µM; in assay [25], over 64 µM; in assay [26], over 64 µM; in [34], at least 64 µM; in assay [35] it was at least 64 µM. Also, the MIC is over 64 µM in assay [36]; over 64 µM in assay [18]; at least 64 µM in [37]; at least 64 µM in [38]; at least 64 µM in assay [39]; at least 64 µM in assay [40].

For `CC(C)C[C@H](NC(=O)[C@H](CCCCN)NC(=O)[C@H](CC(C)C)NC(=O)[C@H](CCCCN)NC(=O)[C@H](CS)NC(=O)[C@H](CC(C)C)NC(=O)[C@H](Cc1c[nH]c2ccccc12)NC(=O)CNC(=O)[C@H](CCCCN)NC(=O)[C@H](CS)NC(=O)[C@@H]1CCCN1C(=O)[C@H](CCCCN)NC(=O)[C@H](CCCN=C(N)N)NC(=O)[C@H](CCCN=C(N)N)NC(=O)[C@H](CO)NC(=O)[C@@H](N)CO)C(=O)N[C@@H](CCCN=C(N)N)C(=O)O` [SSRRKPCKGWLCKLKLR], the MIC in assay [41] came to 2.06 µM (≈ 4.24 µg/mL); in assay [42] it was 5.83 µM (≈ 12 µg/mL); in assay [43] it was 2.91 µM (≈ 6 µg/mL); in [44] it was 1.46 µM (≈ 3 µg/mL).
